The source of these data is US9212187B2, “Nitrogen-containing compounds and pharmaceutical compositions thereof for the treatment of atrial fibrillation” (OTSUKA PHARMACEUTICAL CO., LTD., priority 2009, dated 2015).

For the experiment, the target named is human Kv1.5 channels (Homo sapiens (Human), UniProt P22460). Kind of experiment: Measurement of human Kv1.5 channel current by whole-cell patch clamp method (human Kv1.5-expressing CHO-K1 cell line), Pharmacological Test 1. The format is cell-based. As to conditions: First Invention, Table 2, human Kv1.5-expressing CHO-K1 cells, step end current at +40 mV. As for the experimental part: Pharmacological Test 1 (1) Production of Human Kv1.5-Expressing CHO-K1 Cell Lines
Sequence of human Kv1.5 channels (P22460 whole entry): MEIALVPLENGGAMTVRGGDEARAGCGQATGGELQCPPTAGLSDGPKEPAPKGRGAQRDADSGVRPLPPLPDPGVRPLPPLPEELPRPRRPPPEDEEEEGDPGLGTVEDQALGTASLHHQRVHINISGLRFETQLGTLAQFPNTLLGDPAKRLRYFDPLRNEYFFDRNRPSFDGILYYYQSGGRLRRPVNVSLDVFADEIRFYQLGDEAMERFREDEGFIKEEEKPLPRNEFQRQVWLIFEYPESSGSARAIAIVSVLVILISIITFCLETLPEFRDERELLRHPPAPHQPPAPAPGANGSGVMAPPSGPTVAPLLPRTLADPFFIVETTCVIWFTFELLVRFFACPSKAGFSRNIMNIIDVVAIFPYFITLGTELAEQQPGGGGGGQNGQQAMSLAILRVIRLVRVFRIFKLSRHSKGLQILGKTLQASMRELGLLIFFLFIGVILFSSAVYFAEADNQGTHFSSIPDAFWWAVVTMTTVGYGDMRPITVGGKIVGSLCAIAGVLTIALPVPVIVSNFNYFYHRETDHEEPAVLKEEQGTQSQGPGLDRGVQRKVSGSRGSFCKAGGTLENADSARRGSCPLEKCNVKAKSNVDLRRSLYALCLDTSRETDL
CHO-K1 cell lines stably expressing human Kv1.5 channels were prepared in the following manner.
Full-length human Kv1.5 cDNA was cloned from a human heart cDNA library (produced by Stratagene). The obtained human Kv1.5 sequence corresponds to the sequence described in FASEB J. 5, 331-337 (1991).
The obtained human Kv1.5 cDNA was inserted into a plasmid encoding a CMV promoter and a G418 resistance marker to produce a Kv1.5 expression vector. The human Kv1.5 expression vector was transfected into CHO-K1 cells by the lipofectamine method. After culturing the cells in an F-12 medium (produced by Invitrogen Corp.) containing 10% FBS (produced by Invitrogen Corp.) for 3 or 4 days, the medium was replaced with a FBS-containing F-12 medium that included 1,000 μg/ml of G418 (produced by Invitrogen Corp.), and single colonies were isolated. The amount of Kv1.5 channel expression in the single colonies was quantified at the mRNA level by RT-PCR and then quantified at the protein level by western blotting. Finally, the expressed current was analyzed by patch clamp method. […]
Depolarizing stimulation pulses were applied and ionic current was recorded by using a patch clamp amplifier (EPC-7 or EPC-7 PLUS, produced by HEKA) and a personal computer (manufactured by IBM Corp.) in which software for data acquisition and analysis of ion channel current (PULSE 8.77, produced by HEKA) was installed. The current was measured in the whole-cell configuration of the patch-clamp technique. […] Subsequently, the series resistance (Rs) between the pipette and the interior of the cell was measured and corrected. […]
While the membrane potential was holded at −80 mV, depolarizing pulses (−80 mV for 0.05 seconds→□□+40 mV for 0.2 seconds →□□−40 mV for 0.2 seconds→□□−80 mV for 0.05 seconds) were applied at a stimulation frequency of 1 Hz to measure Kv1.5 channel current. […] The current obtained during the pulse application was recorded as a current in the absence of the test compounds. […]
In general terms: In patch-clamp work, channel activity is measured electrically.

The structures appear in SMILES notation. Counter-ions that a name gives are not always drawn.

For orientation: IC50 means the point on the concentration scale where inhibition reaches its midpoint. Low values mean greater potency in that assay, high ones weaker potency in that assay. For `CCN1C(=O)C(C)(C)C(=O)N(C)c2cc(CN(CCn3ccc4oc(C)cc4c3=O)Cc3cccnc3COC)ccc21` [Example 317, 1-Ethyl-7-({N-(2-methoxymethylpyridin-3-ylmethyl)-N-[2-(2-methyl-4-oxo-4H-furo[3,2-c]pyridin-5-yl)ethyl]amino}methyl)-3,3,5-trimethyl-1,5-dihydrobenzo[b][1,4]diazepine-2,4-dione], half-maximal inhibition (IC50) required 0.63 µM.

As for `CCN1C(=O)C(C)(C)C(=O)N(C)c2cc(CN(CCn3cc(C)c4occc4c3=O)Cc3cccnc3COC)ccc21` [Example 318, 1-Ethyl-7-({N-(2-methoxymethylpyridin-3-ylmethyl)-N-[2-(7-methyl-4-oxo-4H-furo[3,2-c]pyridin-5-yl)ethyl]amino}methyl)-3,3,5-trimethyl-1,5-dihydrobenzo[b][1,4]diazepine-2,4-dione], half-maximal inhibition (IC50) was put at 2.9 µM. With `CCN1C(=O)C(C)(C)C(=O)N(C)c2cc(CN(CCc3cccnc3)C(=O)Cc3cn(C)c4ccccc34)ccc21` [Example 330, N-(1-Ethyl-3,3,5-trimethyl-2,4-dioxo-2,3,4,5-tetrahydro-1H-benzo[b][1,4]diazepin-7-ylmethyl)-2-(1-methyl-1H-indol-3-yl)-N-(2-pyridin-3-ylethyl)acetamide hydrochloride] the figure was 0.86 µM.
